Test system: liver
Experiment: In vivo delivery of luciferase mRNA LNPs, luminescence in liver
Settings: LNP 50/10/38.5/1.5 mol % ionizable lipid/DSPC/chol/PEG-DMG, N/P=6, luciferase mRNA 1 mg/kg intravenous, CD-1 mice, 4 hours post-injection
Experimental: The mRNA dose was 1 mg/kg.

Compound	luminescence intensity per mg liver compared with the MC3 benchmark (lipid 1)
CCCCCCCCC(CCCCCC)C(=O)OCCCCCC(CCCCCOC(=O)CN(C)C(=O)C(CCCCCC)CCCCCCCC)OC(=O)CCCN(C)C (stereo not shown) [lipid 6, 6-((4-(Dimethylamino)butanoyl)oxy)-11-((N-(2-hexyldecanoyl)-N-methylglycyl)oxy)-undecyl 2-hexyldecanoate]	higher
CCCCCCCCC(CCCCCC)C(=O)N(C)CC(=O)OCCCCCC1(CCCCCOC(=O)CN(C)C(=O)C(CCCCCC)CCCCCCCC)OCC(CCOC(=O)CCCN(C)C)O1 (stereo not shown) [lipid 17, (4-(2-((4-(dimethylamino)butanoyl)oxy)ethyl)-1,3-dioxolane-2,2-diyl)bis(pentane-5,1-diyl) bis(2-(2-hexyl-N-methyldecanamido)acetate)]	higher
CCCCCCCCC(CCCCCC)C(=O)N(C)CC(=O)OCCCCCC(CCCCCOC(=O)CN(C)C(=O)C(CCCCCC)CCCCCCCC)OC(=O)CCCC(=O)OCCCN(C)C (stereo not shown) [lipid 19, 9,31-dihexyl-11,29-dimethyl-10,13,27,30-tetraoxo-14,26-dioxa-11,29-diazanonatriacon-tan-20-yl (3-(dimethylamino)propyl) glutarate]	higher
CCCCCCCCC(CCCCCC)C(=O)OCCCCCC(CCCCCOC(=O)CN(C)C(=O)C(CCCCCC)CCCCCCCC)N(C)CCCO (stereo not shown) [lipid 23, 11-((N-(2-Hexyldecanoyl)-N-methylglycyl)oxy)-6-((3-hydroxypropyl)(methyl)amino)-undecyl 2-hexyldecanoate]	higher
CCCCCCCCC(CCCCCC)C(=O)OCCCCCC(CCCCCOC(=O)CN(C)C(=O)C(CCCCCC)CCCCCCCC)N(C)CCO (stereo not shown) [lipid 24, 11-((N-(2-Hexyldecanoyl)-N-methylglycyl)oxy)-6-((2-hydroxyethyl)(methyl)amino)-undecyl 2-hexyldecanoate]	higher
CCCCCCCCC(CCCCCC)C(=O)OCCCCCC(CCCCCOC(=O)CN(C)C(=O)CC(CCCCCCC)CCCCCCC)N(C)CCCCO (stereo not shown) [lipid 25, 11-((N-(3-Heptyldecanoyl)-N-methylglycyl)oxy)-6-((4-hydroxybutyl)(methyl)amino)-undecyl 2-hexyldecanoate]	higher
CCCCCCCCC(CCCCCC)CC(=O)N(C)CC(=O)OCCCCCC(CCCCCOC(=O)C(CCCCCC)CCCCCCCC)N(C)CCCCO (stereo not shown) [lipid 27, 11-((N-(3-Hexylundecanoyl)-N-methylglycyl)oxy)-6-((4-hydroxybutyl)(methyl)-amino)-undecyl 2-hexyldecanoate]	higher
CCCCCCCCCC(=O)OCCCCCC(CCCCCOC(=O)CN(C)C(=O)CC(CCCCCC)CCCCCCCC)N(C)CCCCO (stereo not shown) [lipid 33, 11-((N-(3-Hexylundecanoyl)-N-methylglycyl)oxy)-6-((4-hydroxybutyl)(methyl)-amino)-undecyl decanoate]	higher
CCCCCCCCC(CCCCCC)C(=O)OCCCCCC(CCCCCO)N(C)CCCCOC(=O)CN(C)C(=O)C(CCCCCC)CCCCCCCC (stereo not shown) [lipid 36, 6-((4-((N-(2-Hexyldecanoyl)-N-methylglycyl)oxy)butyl)(methyl)amino)-11-hydroxy-undecyl 2-hexyldecanoate]	higher

Test system: not given
Experiment: not given
Settings: delivery of siRNA; background statement; cited from earlier work

Compound	siRNA required compared with KC2
CCCCC/C=C\C/C=C\CCCCCCCCC(CCCCCCCC/C=C\C/C=C\CCCCC)OC(=O)CCCN(C)C [lipid 1]	about 3 times less

Source: patent US20260115139A1, “Amino Acid-Containing Ionizable Lipids for the Delivery of Therapeutic Agents” (NanoVation Therapeutics Inc., priority 2022, published 2026)
